Measurements reported in the NIST ThermoML archive (doi:10.1021/je900311v).

How the values were obtained:
[1] = excess molar enthalpy (molar enthalpy of mixing); xn = mol fraction of the nth substance listed; details: 298.15 K, 101 kPa, Liquid, Calvet calorimetry
[2] = 298.15 K; 101.33 kPa; Liquid

CCCCCC(=O)CC [3-octanone] + CCCCCCCCCCCCCCCC
[1]
Details | excess molar enthalpy [kJ/mol]
x1 = 0.0448 | 0.229
x1 = 0.0857 | 0.413
x1 = 0.1233 | 0.561
x1 = 0.1578 | 0.683
x1 = 0.1899 | 0.783
x1 = 0.2195 | 0.866
x1 = 0.2522 | 0.949
x1 = 0.2824 | 1.02
x1 = 0.3102 | 1.07
x1 = 0.336 | 1.11
x1 = 0.3599 | 1.14
x1 = 0.3822 | 1.17
x1 = 0.4079 | 1.19
x1 = 0.4316 | 1.2
x1 = 0.4534 | 1.21
x1 = 0.4737 | 1.22
x1 = 0.4956 | 1.22
x1 = 0.5158 | 1.22
x1 = 0.5345 | 1.21
x1 = 0.5517 | 1.2
x1 = 0.5677 | 1.19
x1 = 0.5827 | 1.18
x1 = 0.5995 | 1.17
x1 = 0.615 | 1.15
x1 = 0.6293 | 1.14
x1 = 0.6426 | 1.12
x1 = 0.655 | 1.1
x1 = 0.6775 | 1.06
x1 = 0.69 | 1.04
x1 = 0.7029 | 1.02
x1 = 0.7163 | 0.993
x1 = 0.7302 | 0.965
x1 = 0.7423 | 0.94
x1 = 0.7547 | 0.914
x1 = 0.7676 | 0.884
x1 = 0.7809 | 0.852
x1 = 0.7947 | 0.817
x1 = 0.809 | 0.777
x1 = 0.8216 | 0.741
x1 = 0.8347 | 0.701
x1 = 0.8482 | 0.657
x1 = 0.8621 | 0.61
x1 = 0.8741 | 0.568
x1 = 0.8865 | 0.522
x1 = 0.8993 | 0.473
x1 = 0.9124 | 0.419
x1 = 0.9259 | 0.362
x1 = 0.9375 | 0.312
x1 = 0.9494 | 0.259
x1 = 0.9615 | 0.2
x1 = 0.974 | 0.138
x1 = 0.9868 | 0.0709

CCCCCC(=O)CC [3-octanone] + CCCCCCCCCCCC
[1]
Details | excess molar enthalpy [kJ/mol]
x1 = 0.0352 | 0.171
x1 = 0.0679 | 0.314
x1 = 0.0985 | 0.428
x1 = 0.1272 | 0.526
x1 = 0.1541 | 0.607
x1 = 0.1794 | 0.677
x1 = 0.2078 | 0.745
x1 = 0.2344 | 0.803
x1 = 0.2592 | 0.849
x1 = 0.2824 | 0.888
x1 = 0.3042 | 0.92
x1 = 0.3248 | 0.946
x1 = 0.3477 | 0.969
x1 = 0.3691 | 0.988
x1 = 0.3892 | 1
x1 = 0.408 | 1.01
x1 = 0.4257 | 1.02
x1 = 0.445 | 1.02
x1 = 0.4631 | 1.03
x1 = 0.48 | 1.03
x1 = 0.4959 | 1.02
x1 = 0.5109 | 1.02
x1 = 0.525 | 1.02
x1 = 0.5383 | 1.01
x1 = 0.5524 | 1
x1 = 0.5657 | 0.993
x1 = 0.5782 | 0.984
x1 = 0.5798 | 0.977
x1 = 0.59 | 0.974
x1 = 0.5925 | 0.968
x1 = 0.6057 | 0.957
x1 = 0.6194 | 0.944
x1 = 0.632 | 0.93
x1 = 0.6451 | 0.915
x1 = 0.6588 | 0.897
x1 = 0.673 | 0.879
x1 = 0.6855 | 0.864
x1 = 0.6985 | 0.841
x1 = 0.712 | 0.819
x1 = 0.726 | 0.794
x1 = 0.7405 | 0.767
x1 = 0.7557 | 0.738
x1 = 0.7693 | 0.71
x1 = 0.7833 | 0.68
x1 = 0.798 | 0.646
x1 = 0.8133 | 0.609
x1 = 0.8289 | 0.569
x1 = 0.8453 | 0.526
x1 = 0.8592 | 0.487
x1 = 0.8735 | 0.446
x1 = 0.8883 | 0.401
x1 = 0.9036 | 0.352
x1 = 0.9194 | 0.3
x1 = 0.9358 | 0.245
x1 = 0.9511 | 0.19
x1 = 0.9668 | 0.131
x1 = 0.9831 | 0.0672

CCCCCCCCCCCCCC [tetradecane]
Details | mass density [kg/m3]
[2] | 760.2
